Type in all cases: cell-based
The subject of assay [1] is Pseudomonas aeruginosa. The assay is described as follows: Minimum Biofilm Inhibition Concentration (MBIC) assay, biofilm formation, crystal violet. Conditions: IC50 of compound as % of IC50 of ajoene in the same experiment; <100% more effective than ajoene. The method, then:
(§1) Compounds were assayed for their ability to inhibit S. aureus or P. aeruginosa biofilm formation as follows.
(§2) All compounds were prepared as a 30 mM stock in DMSO and diluted in tryptic soy broth (TSB) to 48 μM (S. aureus) or 144 μM (P. aeruginosa). The compounds were further serially diluted two-fold from 48 μM to 0.75 μM (S. aureus) or 144 μM to 2.3 μM (P. aeruginosa) and added to a 96-well plate at 100 μl per well. Overnight cultures of bacteria were diluted to an OD600=0.07 in fresh TSB and 100 μl of the diluted bacterial culture was added to the compound containing wells. The bacteria were incubated in the presence of the compounds overnight at 37° C. After incubation, the planktonic bacteria were removed by three washes using H2O and the remaining biofilm was stained using crystal violet and quantified photometrically at A570. Absorbances corresponding to biofilm mass were plotted versus compound concentration and IC50 values were calculated. Reference: O'Toole G A, Microtiter Dish Biofilm Formation Assay J. Vis. Exp (2011).
(§3) MBIC assays of the compounds are carried out alongside ajoene for reference and standardization. The IC50 of ajoene against S. aureus and P.aeruginosa is well-defined and reproducible allowing ajoene to serve as an effective control for the experiment. As such, the IC50 calculated for the tested compounds are compared to the IC50 of ajoene in every experiment and are therefore represented as % of ajoene.

Assay [2] relates to Staphylococcus aureus. The description is as above. Conditions: IC50 of compound as % of IC50 of ajoene in the same experiment; <100% more effective than ajoene. The method, then: as §1, §2, §3
The subject of assay [3] is P. aeruginosa biofilms. In words: Inhibition of respiration/viability of established biofilms grown in artificial sputum medium (TTZ viability assay), with tobramycin. Conditions: established 24 h biofilms in ASM, compound 5 hours, then 10 μg/ml tobramycin 16 hours; FIG. 3. The method, then: Compound B was tested for its efficacy to inhibit P. aeruginosa biofilms in artificial sputum medium (ASM) as follows. Overnight cultures of P. aeruginosa were re-seeded to an OD595=0.07 and further diluted 1:100 in ASM and grown for 24 hours at 37° C. to allow for biofilm formation. Compound B was prepared as 30 mM stock in 100% DMSO and established biofilms were treated with the compound at increasing concentrations or left untreated for 5 hours at 37° C. All samples were then treated with 10 μg/ml tobramycin for 16 hours at 37° C. The artificial sputum was liquified using sputasol. The respiratory potential of the biofilms was quantified using a tetrazolium chloride (2,3,5-triphenyl tetrazolium chloride (TTZ)) viability assay.

In assay [4] the test system is S. aureus. The assay is described as follows: Bacterial Exudate Scratch Test (BEST), HaCaT monolayer exposed to S. aureus exudate. The method, then:
(§4) Bacterial cultures (S. aureus and P. aeruginosa) were grown prophylactically with test compounds for 24 hours and exudates were collected.
(§5) Microorganisms were prepared by growing in tryptone soy broth (TSB) at 37° C., 150 rpm for 16 hours.
(§6) The exudates were obtained by first placing in a 24-well plate, 1 mL of each compound treated media and vehicle control media in triplicate. 1 mL of untreated TSB was then added to 3 wells for an untreated control and 2 mL TSB was added to 3 wells for sterility control. Except for the sterility control wells, 1 mL of bacterial suspension was added to each well and mixed well. The plate was then incubated in a humidified incubator at 37° C. for 24 hours at 75 rpm. Following the appropriate incubation time, the entire contents of the well were removed and transferred into a sterile centrifuge tube. The tube was then centrifuged at 10,000 rpm for 10 minutes at 4° C. to pellet the biomass. The supernatant was filtered using a Luer Lock […] filter into another sterile tube. The exudate was aliquoted into 500 μl aliquots in 0.5 mL PCR tubes. […]
(§7) The plates were incubated for 20 hours at 37° C., 5% CO2 and images were taken at the time points as required. Scratch ‘size’ was analysed using ImageJ software.
(§8) The rate of cellular proliferation of the HaCaT cells is calculated at 20 hours as a percentage of the initial scratch size at 0 hours.

Assay [5] deals with P. aeruginosa. The assay is described as follows: Bacterial Exudate Scratch Test (BEST), HaCaT monolayer exposed to P. aeruginosa exudate. The method, then:
as §4, §5, §6, §7, §8

Regarding `COc1ccc(CSSc2ccccc2C[S+]([O-])Cc2ccccc2)cc1` (centres unmarked), in assay [1], the “P. aeruginosa MBIC: % of Ajoene positive control IC50” value (from here on “P. aeruginosa MBIC: %”) is on record as 58 % of Ajoene. Moreover, the “S. aureus MBIC: % of Ajoene positive control IC50” value (“S. aureus MBIC: %” below) in assay [2] was 4 % of Ajoene.
For `O=S(=O)(Cc1ccccc1)Cc1cccc(SSCc2ccc(F)cc2)c1`, in assay [1], the “P. aeruginosa MBIC: %” value is reported as 35 % of Ajoene. In addition, in assay [2], the “S. aureus MBIC: %” value is recorded as 69 % of Ajoene.
Consider `COc1ccc(CSSc2cccc(C[S+]([O-])Cc3ccccc3)c2)cc1` (centres unmarked), for which the “P. aeruginosa MBIC: %” value in assay [1] is given as 20 % of Ajoene. In assay [2], the “S. aureus MBIC: %” value is given as 43 % of Ajoene.
For `[O-][S+](Cc1ccccc1)Cc1cccc(SSCc2ccc(C(F)(F)F)cc2)c1` (centres unmarked), the “P. aeruginosa MBIC: %” value in assay [1] is recorded as 32 % of Ajoene. Also, the “S. aureus MBIC: %” value in assay [2] is listed as 34 % of Ajoene.
Taken in the same sequence, the figures for `C=CCSSc1ccccc1C[S+]([O-])Cc1ccccc1` (centres unmarked) were 76 % of Ajoene and 89 % of Ajoene.
With `[O-][S+](Cc1ccccc1)Cc1cccc(SSCc2ccccc2)c1` (centres unmarked), the “P. aeruginosa MBIC: %” value in assay [1] was 21 % of Ajoene. In assay [2], the “S. aureus MBIC: %” value is 62 % of Ajoene.
With `[O-][S+](Cc1ccccc1)Cc1ccccc1SSCc1ccccc1` (centres unmarked), the “P. aeruginosa MBIC: %” value in assay [1] is 39.9 % of Ajoene. For the same compound, the “S. aureus MBIC: %” value in assay [2] is 89 % of Ajoene.
Turning to `CCC(C)CSSc1cccc(CS(=O)(=O)Cc2ccccc2)c1` (centres unmarked), in assay [1], the “P. aeruginosa MBIC: %” value is reported as 94 % of Ajoene. Moreover, the “S. aureus MBIC: %” value in assay [2] is on record as 11 % of Ajoene.
Regarding `CCC(C)CSSc1cccc(C[S+]([O-])Cc2ccccc2)c1` (centres unmarked), in assay [1], the “P. aeruginosa MBIC: %” value was 15 % of Ajoene. In addition, the “S. aureus MBIC: %” value in assay [2] is given as 22.5 % of Ajoene.
Taken in the same sequence, the figures for `CC(C)CSSc1cccc(C[S+]([O-])Cc2ccccc2)c1` (centres unmarked) were 32 % of Ajoene and 90 % of Ajoene.
For `C=CCSSc1cccc(CS(=O)(=O)Cc2ccco2)c1` the same measures were 100 % of Ajoene and 22 % of Ajoene.
For the compound `CSSc1cccc(CS(=O)(=O)Cc2ccccc2)c1` [Compound B, 1-(methyldisulfanyl)-3-(phenylmethanesulfonylmethyl)benzene], the “effect on efficacy of tobramycin to inhibit biofilm respiration/viability” value in assay [3] is listed as “enhances the efficacy of tobramycin”.
As to `C=CCSSc1cccc(CS(=O)(=O)Cc2ccccc2)c1` [drawing 76], the “P. aeruginosa MBIC: %” value in assay [1] was 82 % of Ajoene. Also, in assay [2], the “S. aureus MBIC: %” value was 5 % of Ajoene.
Take `C=CCSSc1cccc(CS(=O)(=O)Cc2ccccc2)c1` [drawing 83]: the “scratch area at 20 hours” value in assay [4] (HaCaT exposed to S. aureus exudate pre-treated with test compound (125 pM), vehicle 66% remaining) was “almost complete closure of the scratch area”. Besides, the “effect on inhibition of scratch closure in HaCaT cells” value in assay [4] (prophylactic (pre-biofilm) treatment of S. aureus with 125 pM test compound, versus vehicle pre-treatment, FIG. 4) was “completely rescues the inhibition of scratch closure”; in assay [5] (prophylactic (pre-biofilm) treatment of P. aeruginosa with 250 μM test compound, versus vehicle pre-treatment, FIG. 5), “reduces the inhibition of scratch closure”. For the same compound, in assay [5] (HaCaT exposed to P. aeruginosa exudate pre-treated with test compound (250 μM), vehicle 109%, no exudate 9%), the “scratch area at 20 hours (percentage of initial scratch size at 0 hours)” value was 64%.

Values taken from patent US20220081395A1, “DISULPHIDE COMPOUNDS” (NEEM BIOTECH LIMITED, priority 2019, published 2022).
